Results reported in ChEMBL document CHEMBL5465560, “Selectivity Literature for EUbOPEN Chemogenomic Library” (2024).

Assays:
[1] = molecular target: Mitogen-activated protein kinase kinase kinase 9 (Homo sapiens) (UniProt P80192); assay: Selectivity interaction (KinomeScan (DiscoverX)) EUB0000229b MAP3K9; conditions: at 10 µM
[2] = molecular target: T1, Phosphorylase b kinase gamma catalytic chain, liver/testis isoform (Homo sapiens) (UniProt P15735); assay: Selectivity interaction (KinomeScan (DiscoverX)) EUB0000229b PHKG2; conditions: at 10 µM
T1 sequence (whole entry): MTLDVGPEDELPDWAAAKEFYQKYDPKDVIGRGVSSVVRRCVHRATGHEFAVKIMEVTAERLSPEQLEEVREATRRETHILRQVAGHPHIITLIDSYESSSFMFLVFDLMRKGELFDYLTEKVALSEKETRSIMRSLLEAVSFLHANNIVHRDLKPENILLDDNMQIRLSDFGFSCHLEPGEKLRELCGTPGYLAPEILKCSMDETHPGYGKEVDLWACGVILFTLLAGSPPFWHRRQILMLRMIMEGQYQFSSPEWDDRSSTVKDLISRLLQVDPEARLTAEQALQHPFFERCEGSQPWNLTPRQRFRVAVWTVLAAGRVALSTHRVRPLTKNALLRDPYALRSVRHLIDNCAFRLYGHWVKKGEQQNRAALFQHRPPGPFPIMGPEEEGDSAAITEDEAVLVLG

[3] = molecular target: T2, Mitogen-activated protein kinase kinase kinase 5 (Homo sapiens) (UniProt Q99683); assay: Selectivity interaction (KinomeScan (DiscoverX)) EUB0001619a MAP3K5; conditions: at 1 µM
T2 sequence (whole entry): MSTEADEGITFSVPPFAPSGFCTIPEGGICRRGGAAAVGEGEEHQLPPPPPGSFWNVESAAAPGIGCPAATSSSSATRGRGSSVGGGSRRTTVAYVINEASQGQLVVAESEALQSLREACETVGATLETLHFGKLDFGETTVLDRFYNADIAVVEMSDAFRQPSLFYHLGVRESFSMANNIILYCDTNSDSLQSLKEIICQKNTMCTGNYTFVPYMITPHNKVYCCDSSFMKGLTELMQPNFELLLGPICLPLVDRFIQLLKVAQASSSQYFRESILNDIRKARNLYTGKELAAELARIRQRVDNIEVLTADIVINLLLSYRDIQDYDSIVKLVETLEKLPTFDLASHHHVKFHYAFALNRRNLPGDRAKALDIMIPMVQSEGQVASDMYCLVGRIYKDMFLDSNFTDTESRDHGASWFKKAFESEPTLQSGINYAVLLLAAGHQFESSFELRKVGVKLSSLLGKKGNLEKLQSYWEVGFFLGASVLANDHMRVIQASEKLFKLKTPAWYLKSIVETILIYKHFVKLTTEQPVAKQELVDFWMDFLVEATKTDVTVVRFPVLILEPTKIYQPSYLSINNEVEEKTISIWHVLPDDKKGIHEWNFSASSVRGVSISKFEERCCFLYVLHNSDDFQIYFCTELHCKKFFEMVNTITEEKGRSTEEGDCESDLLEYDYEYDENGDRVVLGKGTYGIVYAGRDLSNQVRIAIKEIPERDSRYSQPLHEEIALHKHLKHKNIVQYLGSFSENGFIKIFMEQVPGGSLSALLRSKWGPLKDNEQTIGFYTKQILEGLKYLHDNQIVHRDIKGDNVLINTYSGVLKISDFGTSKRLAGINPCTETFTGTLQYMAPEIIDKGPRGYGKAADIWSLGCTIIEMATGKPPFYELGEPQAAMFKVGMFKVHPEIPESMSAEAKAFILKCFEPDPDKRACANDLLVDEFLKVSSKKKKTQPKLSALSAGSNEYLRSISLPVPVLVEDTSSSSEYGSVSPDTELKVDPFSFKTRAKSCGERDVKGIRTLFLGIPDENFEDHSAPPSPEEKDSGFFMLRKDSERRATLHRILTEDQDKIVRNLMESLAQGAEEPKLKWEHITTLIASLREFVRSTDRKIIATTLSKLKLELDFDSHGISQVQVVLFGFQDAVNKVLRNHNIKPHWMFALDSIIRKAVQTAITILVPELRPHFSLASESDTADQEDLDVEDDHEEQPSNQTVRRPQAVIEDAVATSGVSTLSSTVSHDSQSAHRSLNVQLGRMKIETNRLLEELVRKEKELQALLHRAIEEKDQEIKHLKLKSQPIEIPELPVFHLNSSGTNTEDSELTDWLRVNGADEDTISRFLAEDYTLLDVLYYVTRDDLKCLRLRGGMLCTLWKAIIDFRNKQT

[4] = molecular target: Protein arginine N-methyltransferase 3 (Homo sapiens, UniProt O60678); assay: Selectivity interaction (Scintillation proximity assays) EUB0000255b PRMT3
[5] = molecular target: G protein-coupled receptor kinase 6 (Homo sapiens) (UniProt P43250); assay: Selectivity interaction (Kinase panel (Invitrogen)) EUB0000639a GRK6; conditions: at 200 nM
Chain of G protein-coupled receptor kinase 6 (Homo sapiens) (P43250 whole entry, looked up): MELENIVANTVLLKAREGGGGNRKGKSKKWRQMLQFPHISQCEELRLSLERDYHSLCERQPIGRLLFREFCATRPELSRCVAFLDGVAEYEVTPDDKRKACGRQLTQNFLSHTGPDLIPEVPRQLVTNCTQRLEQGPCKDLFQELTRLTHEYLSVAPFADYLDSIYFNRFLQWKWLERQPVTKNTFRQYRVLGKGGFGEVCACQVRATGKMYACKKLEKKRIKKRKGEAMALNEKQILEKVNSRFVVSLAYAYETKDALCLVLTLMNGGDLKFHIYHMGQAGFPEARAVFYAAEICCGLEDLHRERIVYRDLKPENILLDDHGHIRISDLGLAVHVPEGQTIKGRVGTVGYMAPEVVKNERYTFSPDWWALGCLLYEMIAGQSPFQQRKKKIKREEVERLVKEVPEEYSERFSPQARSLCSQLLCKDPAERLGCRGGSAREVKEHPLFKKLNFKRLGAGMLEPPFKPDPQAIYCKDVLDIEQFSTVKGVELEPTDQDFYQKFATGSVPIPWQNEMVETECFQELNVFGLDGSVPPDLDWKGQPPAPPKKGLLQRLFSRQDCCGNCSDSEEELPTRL

Chain of Mitogen-activated protein kinase kinase kinase 9 (Homo sapiens) (P80192 whole entry, looked up, canonical isoform): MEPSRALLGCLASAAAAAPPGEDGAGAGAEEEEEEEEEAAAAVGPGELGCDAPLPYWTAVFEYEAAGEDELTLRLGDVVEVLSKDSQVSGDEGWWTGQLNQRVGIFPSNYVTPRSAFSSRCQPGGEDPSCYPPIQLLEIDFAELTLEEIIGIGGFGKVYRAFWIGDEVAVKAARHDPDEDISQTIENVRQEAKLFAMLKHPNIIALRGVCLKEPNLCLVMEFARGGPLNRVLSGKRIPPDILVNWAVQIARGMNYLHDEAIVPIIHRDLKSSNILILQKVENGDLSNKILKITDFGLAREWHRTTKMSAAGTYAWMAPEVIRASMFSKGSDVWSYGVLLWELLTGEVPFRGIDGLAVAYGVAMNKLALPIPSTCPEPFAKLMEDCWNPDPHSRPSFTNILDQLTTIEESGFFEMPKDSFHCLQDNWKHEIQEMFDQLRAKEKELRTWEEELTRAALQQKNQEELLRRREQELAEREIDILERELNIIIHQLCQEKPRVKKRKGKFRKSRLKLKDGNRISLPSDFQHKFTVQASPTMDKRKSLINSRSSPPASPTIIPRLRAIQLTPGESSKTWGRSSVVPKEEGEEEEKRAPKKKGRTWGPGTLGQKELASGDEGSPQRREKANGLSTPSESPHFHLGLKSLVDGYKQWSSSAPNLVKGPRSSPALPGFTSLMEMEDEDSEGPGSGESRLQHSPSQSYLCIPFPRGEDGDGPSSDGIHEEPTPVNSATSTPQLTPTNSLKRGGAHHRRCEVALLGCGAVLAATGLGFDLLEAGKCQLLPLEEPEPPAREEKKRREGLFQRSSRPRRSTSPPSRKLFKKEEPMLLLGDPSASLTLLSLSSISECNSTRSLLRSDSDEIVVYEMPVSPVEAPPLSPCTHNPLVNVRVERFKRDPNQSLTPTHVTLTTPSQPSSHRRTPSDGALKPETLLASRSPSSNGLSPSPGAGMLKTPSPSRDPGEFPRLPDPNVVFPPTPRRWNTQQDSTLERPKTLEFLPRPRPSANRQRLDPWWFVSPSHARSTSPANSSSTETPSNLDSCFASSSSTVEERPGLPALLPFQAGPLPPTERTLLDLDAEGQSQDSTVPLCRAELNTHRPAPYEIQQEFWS
Chain of Protein arginine N-methyltransferase 3 (O60678 whole entry): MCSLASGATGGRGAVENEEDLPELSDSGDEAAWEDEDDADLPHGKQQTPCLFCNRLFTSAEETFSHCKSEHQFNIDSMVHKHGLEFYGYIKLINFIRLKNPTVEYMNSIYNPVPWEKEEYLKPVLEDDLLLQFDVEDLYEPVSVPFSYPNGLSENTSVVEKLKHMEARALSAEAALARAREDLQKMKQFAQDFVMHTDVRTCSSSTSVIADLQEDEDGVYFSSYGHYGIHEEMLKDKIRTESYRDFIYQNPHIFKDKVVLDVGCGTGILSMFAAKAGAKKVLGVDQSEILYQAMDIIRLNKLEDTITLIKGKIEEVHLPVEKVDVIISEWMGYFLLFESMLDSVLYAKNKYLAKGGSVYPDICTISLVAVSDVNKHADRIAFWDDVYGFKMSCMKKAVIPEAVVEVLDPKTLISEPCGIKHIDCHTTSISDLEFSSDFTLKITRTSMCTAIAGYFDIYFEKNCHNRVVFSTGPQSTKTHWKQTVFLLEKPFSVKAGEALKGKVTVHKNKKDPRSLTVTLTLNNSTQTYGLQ

COc1cc(N(C)c2ccnc3ccc(C(F)(F)F)cc23)cc(OC)c1OC
% binding [1]: 88%
% binding [2]: 85%

N#Cc1cccc(-c2c[nH]c3ncnc(N4CCOCC4)c23)c1
% of control [3]: 26%

COCCN1CCC(c2cc(CN(C)C(=O)c3cccc(Oc4ccccc4)c3)ccn2)CC1
IC50 [4]: > 10 µM

CC[C@@H]1[C@H](F)C(=O)N[C@@H]1COc1nccc2cc(C(N)=O)c(OC)cc12 [ZIMLOVISERTIB]
% of inhibition [5]: 3.09%
